Measured values from ChEMBL document CHEMBL1201862, “PubChem BioAssay data set” (2004).
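Five concentrations, 48 hours, 96-well plates. GI50 is the concentration that inhibits growth by half.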 Active and inactive are the calls of the source. Cut-off read from the data, not from the text of the source: active = GI50 up to about 1.1 µM and inactive = higher.

Legend:
Assay in all cases: NCI tumour cell line growth inhibition, 48 h
[1] = system: 786-0
[2] = system: A498
[3] = system: A549
[4] = system: ACHN
[5] = system: BT-549
[6] = system: CAKI-1
[7] = system: CCRF-CEM
[8] = system: COLO 205
[9] = system: DU-145
[10] = system: EKVX
[11] = system: HCC 2998
[12] = system: HCT-116
[13] = system: HCT-15
[14] = system: HOP-62
[15] = system: HOP-92
[16] = system: HT-29
[17] = system: Hs-578T
[18] = system: IGROV-1
[19] = system: KM12
[20] = system: M14
[21] = system: MCF7
[22] = system: MDA-MB-231
[23] = system: MDA-MB-435
[24] = system: MDA-N
[25] = system: MOLT-4
[26] = system: Malme-3M
[27] = system: NCI-H226
[28] = system: NCI-H23
[29] = system: NCI-H522
[30] = system: NCI/ADR-RES
[31] = system: OVCAR-3
[32] = system: OVCAR-4
[33] = system: OVCAR-5
[34] = system: OVCAR-8
[35] = system: PC-3
[36] = system: RPMI-8226
[37] = system: RXF 393
[38] = system: SF-268
[39] = system: SF-295
[40] = system: SF-539
[41] = system: SK-MEL-28
[42] = system: SK-MEL-2
[43] = system: SK-MEL-5
[44] = system: SK-OV-3
[45] = system: SNB-19
[46] = system: SW-620
[47] = system: T47D
[48] = system: TK-10
[49] = system: U-251
[50] = system: UACC-257
[51] = system: UACC-62
[52] = system: UO-31
[53] = system: HL-60
[54] = system: K562
[55] = system: LOX IMVI
[56] = system: NCI-H460
[57] = system: SN12C
[58] = system: SNB-75

C#CCNCC(=O)O
GI50 [1]: > 100 µM (inactive) | GI50 [2]: > 100 µM (inactive) | GI50 [3]: > 100 µM (inactive) | GI50 [4]: > 100 µM (inactive) | GI50 [5]: > 100 µM (inactive) | GI50 [6]: > 100 µM (inactive) | GI50 [7]: > 100 µM (inactive) | GI50 [8]: > 100 µM (inactive) | GI50 [9]: > 100 µM (inactive) | GI50 [10]: > 100 µM (inactive) | GI50 [11]: > 100 µM (inactive) | GI50 [12]: > 100 µM (inactive) | GI50 [13]: > 100 µM | GI50 [14]: > 100 µM (inactive) | GI50 [15]: > 100 µM (inactive) | GI50 [16]: > 100 µM (inactive) | GI50 [17]: > 100 µM (inactive) | GI50 [18]: > 100 µM (inactive) | GI50 [19]: > 100 µM (inactive) | GI50 [20]: > 100 µM (inactive) | GI50 [21]: > 100 µM (inactive) | GI50 [22]: > 100 µM (inactive) | GI50 [23]: > 100 µM (inactive) | GI50 [24]: > 100 µM (inactive) | GI50 [25]: > 100 µM (inactive) | GI50 [26]: > 100 µM (inactive) | GI50 [27]: > 100 µM (inactive) | GI50 [28]: > 100 µM (inactive) | GI50 [29]: > 100 µM (inactive) | GI50 [30]: > 100 µM (inactive) | GI50 [31]: > 100 µM (inactive) | GI50 [32]: > 100 µM (inactive) | GI50 [33]: > 100 µM (inactive) | GI50 [34]: > 100 µM (inactive) | GI50 [35]: > 100 µM (inactive) | GI50 [36]: > 100 µM (inactive) | GI50 [37]: > 100 µM (inactive) | GI50 [38]: > 100 µM (inactive) | GI50 [39]: > 100 µM (inactive) | GI50 [40]: > 100 µM (inactive) | GI50 [41]: > 100 µM (inactive) | GI50 [42]: > 100 µM (inactive) | GI50 [43]: > 100 µM (inactive) | GI50 [44]: > 100 µM (inactive) | GI50 [45]: > 100 µM (inactive) | GI50 [46]: > 100 µM (inactive) | GI50 [47]: > 100 µM (inactive) | GI50 [48]: > 100 µM (inactive) | GI50 [49]: > 100 µM (inactive) | GI50 [50]: > 100 µM (inactive) | GI50 [51]: > 100 µM (inactive) | GI50 [52]: > 100 µM (inactive)

CCOC(=O)/C=C(\C(=O)OCC)n1ccc(=O)n(Cc2cnnn2COCCOC(C)=O)c1=O
GI50 [1]: 3.73 µM (inactive) | GI50 [2]: 23 µM (inactive) | GI50 [3]: 21.6 µM (inactive) | GI50 [4]: 3.79 µM (inactive) | GI50 [5]: 8.28 µM (inactive) | GI50 [6]: 2.97 µM (inactive) | GI50 [7]: 1.61 µM (inactive) | GI50 [8]: 1.77 µM (inactive) | GI50 [9]: 18.8 µM (inactive) | GI50 [10]: 14.5 µM (inactive) | GI50 [11]: 17.9 µM (inactive) | GI50 [12]: 9.25 µM (inactive) | GI50 [13]: 7.67 µM | GI50 [53]: 598 nM (active) | GI50 [14]: 18.9 µM (inactive) | GI50 [16]: 14.2 µM (inactive) | GI50 [17]: 20.5 µM (inactive) | GI50 [18]: 16.8 µM (inactive) | GI50 [54]: 3.48 µM (inactive) | GI50 [19]: 16.1 µM (inactive) | GI50 [55]: 12.2 µM (inactive) | GI50 [20]: 15.1 µM (inactive) | GI50 [21]: 6.4 µM (inactive) | GI50 [22]: 17.6 µM (inactive) | GI50 [23]: 8.59 µM (inactive) | GI50 [24]: 16.8 µM (inactive) | GI50 [25]: 2.59 µM (inactive) | GI50 [26]: 2.04 µM (inactive) | GI50 [27]: 16.8 µM (inactive) | GI50 [28]: 17.3 µM (inactive) | GI50 [56]: 14.2 µM (inactive) | GI50 [29]: 1.61 µM (inactive) | GI50 [30]: 22.9 µM (inactive) | GI50 [31]: 11 µM (inactive) | GI50 [32]: 23.9 µM (inactive) | GI50 [33]: 15.6 µM (inactive) | GI50 [34]: 12.1 µM (inactive) | GI50 [35]: 14.3 µM (inactive) | GI50 [36]: 8.15 µM (inactive) | GI50 [37]: 1.85 µM (inactive) | GI50 [38]: 16.5 µM (inactive) | GI50 [39]: 28.7 µM (inactive) | GI50 [40]: 2.36 µM (inactive) | GI50 [41]: 10 µM (inactive) | GI50 [42]: 18.4 µM (inactive) | GI50 [43]: 21.9 µM (inactive) | GI50 [44]: 53.7 µM (inactive) | GI50 [57]: 15.4 µM (inactive) | GI50 [45]: > 46.7 µM (inactive) | GI50 [58]: 16.4 µM (inactive) | GI50 [46]: 2.16 µM (inactive) | GI50 [47]: 6.11 µM (inactive) | GI50 [48]: 5.64 µM (inactive) | GI50 [49]: 16.4 µM (inactive) | GI50 [50]: 16.2 µM (inactive) | GI50 [51]: 16.1 µM (inactive) | GI50 [52]: 16.8 µM (inactive)
